What was measured:
[1] = system: T2 cell lines expressing HLA-A2 molecules; test: IFN-γ EliSpot of spleen CD8+T cells from mice electroporated with multi-epitope PLK1 recombinant DNA, against T2 cells sensitized with each epitope peptide; type: cell-based, HLA-A2 transgenic mice; conditions: CD8+T cells of spleens after electroporation with PLKWT / PLKOPT recombinant DNA 3 times at 7-day intervals, FIGS. 2A and 2B
Description: FIGS. 2A and 2B illustrate the EliSpot results confirming immune responses occurring in the spleen after HLA-A2 transgenic mice are subjected to electroporation with a recombinant DNA (FIG. 2A) including multiple wild-type PLK1 epitopes and a recombinant DNA (FIG. 2B) including multiple PLK1 epitopes optimized for recombination.
In order to use a DNA-based vaccination strategy inducing multi-epitope-specific T cell immune responses, an amino acid sequence of the predicted PLK1-derived HLA-A2 multi-epitope was linked to a furin-sensitive linker (SGSG) amino acid sensitive to a proteolytic enzyme of the Golgi apparatus and cloned into a pCI expression vector (see FIG. 1).
Recombinant DNA, PLKWT and PLKOPT were transfected into HLA-A2 transgenic mice and biological electric shock therapy was performed at 95 V (4×65 ms pulses with repoling) using an Electro square wave electroporation device (ECM830; BTX; San Diego, CA). After the biological electric shock therapy was performed 3 times at 7-day intervals, CD8+T cells of mouse spleens were isolated. IFN-γ EliSpot was performed by sensitizing T2 cell lines expressing HLA-A2 molecules with each predicted epitope peptide and using T2 cell lines as a target cell.

[2] = system: T2 cell lines and HLA-A2 positive tumor cells; test: IFN-γ EliSpot of CD8+T cells from peptide-immunized mice against peptide-sensitized T2 cells and tumor cells; type: in vivo, HLA-A2 transgenic mice; conditions: targets CCRF-SB, THP-1, SKM-1, SK-MEL-5 (HLA-A2 positive), HL-60 and SK-MEL-3 (HLA-A2 negative), FIG. 4A to 4C
Description: FIG. 4A to 4C illustrate the EliSpot results confirming immune responses occurring by immunization of HLA-A2 transgenic mice with PLK1123 (SDFVFVVLEL, SEQ ID NO: 1)(FIG. 4A), PLK1477 (TLLKYFRNYM, SEQ ID NO: 2)(FIG. 4B), and PLK1541/21 (LILCPLMAAV, SEQ ID NO: 3)(FIG. 4C) among PLK1-derived epitope candidates specific for HLA-2 by a dendritic cell vaccination and peptide-based vaccination strategy.
In order to examine CD8+T cell immune responses, an immune response occurring in the spleen was confirmed by immunization into HLA-A2 transgenic mice by a dendritic cell vaccination and peptide-based vaccination strategy. For this purpose, HLA-A2-binding PLK1123 ([…], SEQ ID NO: 1), PLK1477 (TLLKYFRNYM, SEQ ID NO: 2), and PLK1541 (LILCPLMAAV, SEQ ID NO: 3) peptides confirmed as dominant epitopes were selected in a multi-epitope DNA-based vaccination experiment in the HLA-A2 transgenic mice, and immunized into the HLA-As transgenic mice by a dendritic cell vaccination and peptide-based TriVax vaccination (CD40 antibody/Poly-IC/epitope) strategy. After an immune response to each epitope-peptide was induced through this, CD8+T cells were obtained by antibody-binding magnetic cell sorting, and used as effector cells for confirming an antigen-specific T cell response. […]

CD8+T cells = test: Flow cytometry of spleen CD8+T cells expressing IFN-γ and CD107a/b after dendritic cell vaccination and peptide-based TriVax vaccination; type: in vivo, HLA-A2 transgenic mice; conditions: spleen T cells cultured with PLK1 antigen; compared to the groups using PLK1477 and PLK1541 antigen-peptides; FIG. 3
Description: FIG. 3 illustrates flow cytometry analysis results confirming CD8+T cell immune responses of PLK1123 (SDFVFVVLEL, SEQ ID NO: 1), PLK1477 (TLLKYFRNYM, SEQ ID NO: 2), and PLK1541/21 (LILCPLMAAV, SEQ ID NO: 3) among PLK-1-derived epitope candidates specific for HLA-A2 with CD107a/b.
Next, HLA-A2-binding PLK1123 (SDFVFVVLEL, SEQ ID NO: 1), PLK1477 (TLLKYFRNYM, SEQ ID NO: 2), and PLK1541 (LILCPLMAAV, SEQ ID NO: 3) peptides confirmed as dominant epitopes were selected in a multi-epitope DNA-based vaccination experiment in the HLA-A2 transgenic mice, and immunized into the HLA-As transgenic mice by a dendritic cell vaccination and peptide-based TriVax vaccination (CD40 antibody/Poly-IC/epitope) strategy. After an immune response to each epitope-peptide was induced through this, T cells of the spleens were obtained and each cultured with a PLK1 antigen, and then CD8+T cells expressing IFN-γ and CD107a/b were confirmed using flow cytometry.

Row | Sequence | ability to produce IFN-γ by the activation of CD8+T cells for T2 cell lines sensitized with each epitope peptide [1] | CD8+T cell responses specific for T2 cell lines and HLA-A2 positive tumor cells sensitized with PLK1-derived antigen-peptides [2] | rate of antigen-specific CD8+T cells (IFN-γ and CD107a/b) (CD8+T cells)
1 | ILCPLMAAV (Human Polo-like kinase-1) [PLK1542] | high levels |  | 
2 | LILCPLMAAV (Human Polo-like kinase-1) [PLK1541 21] | high levels |  | 
3 | SDFVFVVLEL (Human Polo-like kinase-1) [PLK1123] | high levels | observed | relatively high rate
4 | TLLKYFRNYM (Human Polo-like kinase-1) [PLK1477] | high levels |  | 

— patent US12054752B2, “HLA-A2 subtype-specific PLK1-derived epitope inducing antigen-specific t cell immune response to PLK1 protein” (THE CATHOLIC UNIVERSITY OF KOREA INDUSTRY-ACADEMIC …, priority 2017, dated 2024)
